Broadly, the inhibition is how much of the control response was suppressed. In general, pIC50 refers to the negative decadic logarithm of the IC50, by convention in mol/L.

pIC50: −log10 of the molar value.

Results on 25 compounds are retold here after patent US8691855B2, “Compounds, isomer thereof, or pharmaceutically acceptable salts thereof as vanilloid receptor antagonist and pharmaceutical compositions containing the same” (Amorepacific Corporation, priority 2008, dated 2014).

One assay deals with T1, vanilloid receptor (Rattus norvegicus, UniProt O35433).
T1 construct: DRG nerve cells from the primary culture of 2 days were equilibrated; endogenous in cells; host or cells: primary culture of dorsal root ganglion neurons from neonatal SD rats
T1 sequence (O35433 whole entry): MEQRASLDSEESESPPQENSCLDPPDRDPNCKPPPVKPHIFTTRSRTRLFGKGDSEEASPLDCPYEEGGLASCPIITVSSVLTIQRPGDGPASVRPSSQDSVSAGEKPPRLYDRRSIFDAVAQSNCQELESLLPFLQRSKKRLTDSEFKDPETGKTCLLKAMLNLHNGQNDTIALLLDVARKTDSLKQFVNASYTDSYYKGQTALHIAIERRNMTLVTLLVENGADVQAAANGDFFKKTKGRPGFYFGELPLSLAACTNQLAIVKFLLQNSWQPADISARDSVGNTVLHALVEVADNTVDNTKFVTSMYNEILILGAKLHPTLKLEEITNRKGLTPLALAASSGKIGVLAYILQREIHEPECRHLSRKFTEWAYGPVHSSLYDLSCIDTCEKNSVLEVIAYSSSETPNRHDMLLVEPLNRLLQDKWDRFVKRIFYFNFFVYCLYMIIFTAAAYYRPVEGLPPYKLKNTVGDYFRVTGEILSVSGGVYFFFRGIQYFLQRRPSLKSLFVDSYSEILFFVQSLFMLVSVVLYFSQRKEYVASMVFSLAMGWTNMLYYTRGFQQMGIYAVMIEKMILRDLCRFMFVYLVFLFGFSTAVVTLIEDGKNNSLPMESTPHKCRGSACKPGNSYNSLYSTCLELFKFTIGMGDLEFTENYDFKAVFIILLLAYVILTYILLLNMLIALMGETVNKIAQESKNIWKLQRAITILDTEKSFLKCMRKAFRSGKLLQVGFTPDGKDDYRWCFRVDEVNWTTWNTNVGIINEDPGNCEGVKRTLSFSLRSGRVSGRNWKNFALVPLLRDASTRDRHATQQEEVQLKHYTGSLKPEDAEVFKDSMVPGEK
The assay is described as follows: 45Ca influx test (antagonist calcium uptake test) in rat DRG neurons stimulated with capsaicin. The format is cell-based. To be noted: DRG neuron; @1 μM; neonatal SD rat DRG neurons; capsaicin 0.5 μM; read-out: Antagonist Calcium Uptake Test, percent inhibition of capsaicin response. The method, then:
1) Separation of spinal dorsal root ganglia (DRG) in newborn rats and primary culture thereof
Neonatal (2-3 clay old or younger than 2-3 day old) SD rats were put in ice for 5 minutes to anesthetize and disinfected with 70% ethanol. DRG of all part of spinal cord were dissected (Wood et al., 1988, J. Neurosci. 8, pp 3208-3220) and collected in DME/F12 medium to which 1.2 g/l sodium bicarbonate and 50 mg/l gentamycin were added. The DRG were incubated sequentially at 37° C. for 30 mins in 200 U/ml collagenase and 2.5 mg/ml trypsin, separately. The ganglia were washed twice with DME/F12 medium supplemented with 10% horse serum, triturated through a fire-polished Pasteur pipette, filtered through Nitex 80 membrane to obtain single cell suspension and the suspension was washed once more. This was subjected to centrifugation, then resuspended in cell culture medium at certain level of cell density. As the cell culture medium, DME/F12 medium supplemented with 10% horse serum was diluted with identical medium conditioned by C6 glioma cells 2 clays on a confluent monolayer (1:1), and NGF (Nerve Growth Factor) was added to adjust 200 ng/ml as final concentration. After the cells were grown 2 days in medium where cytosine arabinoside (Ara-C, 100 μM) was added to kill dividing nonneuronal cells, medium was changed to one without Ara-C. The resuspended cells were plated at a density of 1500-2000 neurons/well onto Terasaki plates previously coated with 10 μg/ml poly-D-ornithine.
2) ^45Ca Influx Experiments
DRG nerve cells from the primary culture of 2 days were equilibrated by washing 4 times with HEPES (10 mM, pH 7.4)-buffered Ca^2+, Mg^2+-free HBSS (H-HBSS). The solution in each well was removed from the individual well. Medium containing the test compound plus capsaicin (final concentration 0.5 μM) and ^45Ca (final concentration 10 μCi/ml) in H-HBSS was added to each well and incubated at room temperature for 10 nuns. Terasaki plates were washed five times with H-HBSS and dried at room temperature. To each well, 0.3% SDS (10 μl) was added to elute ^45Ca. After the addition of scintillation cocktail of into each well, the amount of ^45Ca influx into neuron was measured by counting radioactivity. Antagonistic activities of test compounds against vanilloid receptor were calculated as percent of the inhibition of maximal response of capsaicin at a concentration of 0.5 μM.
With `C[C@@H](NC(=O)c1coc(Oc2cccc3c2CCCC3)n1)c1cc(F)c(NS(C)(=O)=O)c(F)c1` (stereo in doubt) [Example 55, 2-(5,6,7,8-Tetrahydro-naphthalen-1-yloxy)-oxazole-4-carboxylic acid [1-(3,5-difluoro-4-methanesulfonylamino-phenyl)-ethyl]-amide], the inhibition at 1 µM was 74%.

On to `C[C@@H](NC(=O)c1ccc(-c2cc(C3CC3)cc(C(F)(F)F)c2)o1)c1cc(F)c(NS(C)(=O)=O)c(F)c1` [Example 95, 5-(3-Cyclopropyl-5-trifluoromethyl-phenyl)-furan-2-carboxylic acid [1-(3,5-difluoro-4-methanesulfonylamino-phenyl)-ethyl]-amide], for which the inhibition at 1 µM turned out to be 66%.

The assay is the same for the next values; noted with them: DRG neuron; @3 μM; neonatal SD rat DRG neurons; capsaicin 0.5 μM; read-out: Antagonist Calcium Uptake Test, percent inhibition of capsaicin response.
In the case of `Cc1cc(CNC(=O)c2ccc(-c3cccc(C(F)(F)F)c3)o2)cc(F)c1NS(C)(=O)=O` [Example 103, 5-(3-Trifluoromethyl-phenyl)-furan-2-carboxylic acid 3-fluoro-4-methanesulfonylamino-5-methyl-benzylamide], the inhibition at 3 µM is 84%.

For `C[C@@H](NC(=O)c1coc(-c2ccc(C(F)(F)F)cc2)n1)c1cc(F)c(NS(C)(=O)=O)c(F)c1` [Example 74, 2-(4-Trifluoromethyl-phenyl)-oxazole-4-carboxylic acid [1-(3,5-difluoro-4-methanesulfonylamino-phenyl)-ethyl]-amide], the inhibition at 3 µM came to 89%.

The assay is the same for the next values; noted with them: neonatal SD rat DRG neurons; capsaicin 0.5 μM; 45Ca.
On to `CC(=O)c1cccc(-c2nc(C(=O)N[C@H](C)c3cc(F)c(NS(C)(=O)=O)c(F)c3)co2)c1` [Example 76, 2-(3-Acetyl-phenyl)-oxazole-4-carboxylic acid [1-(3,5-difluoro-4-methanesulfonylamino-phenyl)-ethyl]-amide], for which the pIC50 was < 5.00.

With `CC(C)c1cc(Oc2nc(C(=O)N[C@H](C)c3cc(F)c(NS(C)(=O)=O)c(F)c3)co2)cc(C(F)(F)F)c1` [Example 40, 2-(3-Isopropyl-5-trifluoromethyl-phenoxy)-oxazole-4-carboxylic acid [1-(3,5-difluoro-4-methanesulfonylamino-phenyl)-ethyl]-amide], the pIC50 is 5.96.

Take `C[C@@H](NC(=O)c1coc(Oc2cccc([N+](=O)[O-])c2)n1)c1cc(F)c(NS(C)(=O)=O)c(F)c1` [Example 18, 2-(3-Nitro-phenoxy)-oxazole-4-carboxylic acid [1-(3,5-difluoro-4-methanesulfonylamino-phenyl)-ethyl]-amide]: the negative logarithm of the IC50 (pIC50) is 5.54.

Take `CC(C)c1cccc(Oc2nc(C(=O)NCc3cc(F)c(NS(C)(=O)=O)c(F)c3)co2)c1` [Example 9, 2-(3-Isopropyl-phenoxy)-oxazole-4-carboxylic acid 3,5-difluoro-4-methanesulfonylamino-benzylamide]: the negative logarithm of the IC50 (pIC50) is 6.36.

Consider `C=C1CCc2c(Oc3nc(C(=O)N[C@H](C)c4cc(F)c(NS(C)(=O)=O)c(F)c4)co3)cccc21` [Example 28, 2-(1-Methylene-indan-4-yloxy)-oxazole-4-carboxylic acid [1-(3,5-difluoro-4-methanesulfonylamino-phenyl)-ethyl]-amide], for which the pIC50 is 6.09.

As to `CS(=O)(=O)Nc1c(F)cc(CNC(=O)c2ccc(-c3cccc(C(F)(F)F)c3)o2)cc1F` [Example 110, 5-(3-Trifluoromethyl-phenyl)-furan-2-carboxylic acid 3,5-difluoro-4-methanesulfonylamino-benzylamide], the pIC50 is 6.21.

Turning to `C[C@H](NC(=O)c1ccc(-c2cccc(C(F)(F)F)c2)o1)c1cc(F)c(NS(C)(=O)=O)c(F)c1` [Example 109, (S)-5-(3-Trifluoromethyl-phenyl)-furan-2-carboxylic acid [1-(3,5-difluoro-4-methanesulfonylamino-phenyl)-ethyl]-amide], the pIC50 is 6.57.

As to `C[C@@H](NC(=O)c1coc(-c2ccc3ccccc3c2)n1)c1cc(F)c(NS(C)(=O)=O)c(F)c1` [Example 89, 2-Naphthalen-2-yl-oxazole-4-carboxylic acid [1-(3,5-difluoro-4-methanesulfonylamino-phenyl)-ethyl]-amide], the pIC50 is 5.57.

As for `C[C@@H](NC(=O)c1coc(Oc2cccc(C(F)(F)F)c2Cl)n1)c1cc(F)c(NS(C)(=O)=O)c(F)c1` [Example 45, 2-(2-Chloro-3-trifluoromethyl-phenoxy)-oxazole-4-carboxylic acid [1-(3,5-difluoro-4-methanesulfonylamino-phenyl)-ethyl]-amide], the pIC50 is 6.11.

Consider `C[C@@H](NC(=O)c1coc(-c2cc(Cl)cc(Cl)c2)n1)c1cc(F)c(NS(C)(=O)=O)c(F)c1` [Example 83, 2-(3,5-Dichloro-phenyl)-oxazole-4-carboxylic acid [1-(3,5-difluoro-4-methanesulfonylamino-phenyl)-ethyl]-amide], for which the pIC50 was 6.06.

Consider `C[C@@H](NC(=O)c1coc(Nc2cccc(C(F)(F)F)c2)n1)c1cc(F)c(NS(C)(=O)=O)c(F)c1` [Example 44, 2-(3-Trifluoromethyl-phenylamino)-oxazole-4-carboxylic acid [1-(3,5-difluoro-4-methanesulfonylamino-phenyl)-ethyl]-amide], for which the pIC50 was 5.26.

As for `C#Cc1cccc(Oc2nc(C(=O)N[C@H](C)c3cc(F)c(NS(C)(=O)=O)c(F)c3)co2)c1` [Example 27, 2-(3-Ethynyl-phenoxy)-oxazole-4-carboxylic acid [1-(3,5-difluoro-4-methanesulfonylamino-phenyl)-ethyl]-amide], the pIC50 was 5.80.

As for `C[C@@H](NC(=O)c1ccc(-c2cc(C3CC3)cc(C3CC3)c2)o1)c1cc(F)c(NS(C)(=O)=O)c(F)c1` [Example 108, 5-(3,5-Dicyclopropyl-phenyl)-furan-2-carboxylic acid [1-(3,5-difluoro-4-methanesulfonylamino-phenyl)-ethyl]-amide], the negative logarithm of the IC50 (pIC50) was 6.28.

Regarding `Cc1cc(CNC(=O)c2ccc(-c3cccc(C(F)(F)F)c3)o2)ccc1NS(C)(=O)=O` [Example 112, 5-(3-Trifluoromethyl-phenyl)-furan-2-carboxylic acid 4-methanesulfonylamino-3-methyl-benzylamide], the pIC50 is 6.66.

With `C[C@@H](NC(=O)c1coc(-c2ccc(C(C)(C)C)cc2)n1)c1cc(F)c(NS(C)(=O)=O)c(F)c1` [Example 75, 2-(4-tort-Butyl-phenyl)-oxazole-4-carboxylic acid [1-(3,5-difluoro-4-methanesulfonylamino-phenyl)-ethyl]-amide], the pIC50 is 5.62.

In the case of `CCN(CC)c1cccc(Oc2nc(C(=O)N[C@H](C)c3cc(F)c(NS(C)(=O)=O)c(F)c3)co2)c1` [Example 8, 2-(3-Diethylamino-phenoxy)-oxazole-4-carboxylic acid [1-(3,5-difluoro-4-methanesulfonylamino-phenyl)-ethyl]-amide], the pIC50 was 5.57.

With `C[C@@H](NC(=O)c1coc(Oc2cc(C(F)(F)F)ccc2Cl)n1)c1cc(F)c(NS(C)(=O)=O)c(F)c1` [Example 53, 2-(2-Chloro-5-trifluoromethyl-phenoxy)-oxazole-4-carboxylic acid [1-(3,5-difluoro-4-methanesulfonylamino-phenyl)-ethyl]-amide], the pIC50 was 6.14.

Regarding `C[C@@H](NC(=O)c1coc(Oc2cc(C(F)(F)F)ccn2)n1)c1cc(F)c(NS(C)(=O)=O)c(F)c1` [Example 25, 2-(4-Trifluoromethyl-pyridin-2-yloxy)-oxazole-4-carboxylic acid [1-(3,5-difluoro-4-methanesulfonylamino-phenyl)-ethyl]-amide], the negative logarithm of the IC50 (pIC50) is < 5.00.

In the case of `C[C@@H](NC(=O)c1cc(-c2ccc(Br)cc2)oc1C(F)(F)F)c1cc(F)c(NS(C)(=O)=O)c(F)c1` [Example 62, 5-(4-Bromo-phenyl)-2-trifluoromethyl-furan-3-carboxylic acid [1-(3,5-difluoro-4-methanesulfonylamino-phenyl)-ethyl]-amide], the negative-log IC50 (pIC50) is 6.36.

On to `C[C@@H](NC(=O)c1coc(-c2cccc(N(C)C)c2)n1)c1cc(F)c(NS(C)(=O)=O)c(F)c1` [Example 81, 2-(3-Dimethylamino-phenyl)-oxazole-4-carboxylic acid [1-(3,5-difluoro-4-methanesulfonylamino-phenyl)-ethyl]-amide], for which the pIC50 was 6.00.

As to `Cc1cccc(-c2nc(C(=O)N[C@H](C)c3cc(F)c(NS(C)(=O)=O)c(F)c3)co2)c1C` [Example 90, 2-(2,3-Dimethyl-phenyl)-oxazole-4-carboxylic acid [1-(3,5-difluoro-4-methanesulfonylamino-phenyl)-ethyl]-amide], the pIC50 is 6.04.
